Two molecules from patent publication US9700533B2, “Maternal chelation for embryo, fetal and infant benefit” (priority 2005, dated 2017) can be followed below.

SMILES strings stand for the structures.

A short description of the experiment: Maternal chelation treatment, pregnancy, child and patient outcome. The format is in vivo, human.

Take `O=C([O-])CN(CCN(CC(=O)[O-])CC(=O)[O-])CC(=O)[O-].[Ca+2].[Na+].[Na+]` [calcium EDTA]: the chronic fatigue entry (Case 5, calcium EDTA + vitamin C IV together with oral DMSA) is “chronic fatigue improved”. Further, the “neurological development of the baby” value (Case 5, parent treated preconceptionally with calcium EDTA + vitamin C IV and oral DMSA) was “above average neurological development”. As to `CC(=O)N[C@@H](CS)C(=O)O` [NAC, N-Acetyl-Cysteine], for the setting “Case 3, 500 mg oral NAC per day throughout pregnancy, also vitamin C and selenium, previous child with attention deficit disorder”, the “outcome of subsequent child” value was “did not have attention deficit disorder”.
